From patent US20100197591A1, “4-AMINO-7,8-DIHYDROPYRIDO[4,3-d]PYRIMIDIN-5(6H)-ONE DERIVATIVES” (pfizer Inc, priority 2009, published 2010) come the findings set out here.

Structures are written as SMILES.

The target in the assay is T1, Human full-length diacylglycerol:acylCoA acyltransferase 1 (DGAT-1) (Homo sapiens, UniProt O75907).
T1 construct: Human full-length diacylglycerol:acylCoA acyltransferase 1 (DGAT-1) was expressed in Sf9 insect cells; made in house; host or cells: Sf9 insect cells (baculovirus); crude membrane/microsome fraction
T1 sequence (O75907 1-488): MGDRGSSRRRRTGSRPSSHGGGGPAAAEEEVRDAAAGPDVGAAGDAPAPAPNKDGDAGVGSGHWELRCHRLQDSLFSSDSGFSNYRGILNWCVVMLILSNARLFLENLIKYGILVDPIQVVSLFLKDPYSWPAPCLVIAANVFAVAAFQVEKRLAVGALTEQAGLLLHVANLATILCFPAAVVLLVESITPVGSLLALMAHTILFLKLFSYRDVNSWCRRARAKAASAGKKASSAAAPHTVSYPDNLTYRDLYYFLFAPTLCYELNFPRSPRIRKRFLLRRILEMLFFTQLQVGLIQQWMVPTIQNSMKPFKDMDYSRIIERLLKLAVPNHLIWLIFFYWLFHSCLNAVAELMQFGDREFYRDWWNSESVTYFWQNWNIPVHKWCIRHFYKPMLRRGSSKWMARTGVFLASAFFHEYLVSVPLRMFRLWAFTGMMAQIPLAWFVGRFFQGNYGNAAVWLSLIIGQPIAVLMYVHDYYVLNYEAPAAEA
The experiment in a line: DGAT-1 Reduced Microsome Multidose Assay, G7329F Human IC50. Type of assay: biochemical. The following applies: crude membrane fraction of Sf9 cells expressing human DGAT-1; [14C]decanoylCoA; apparent IC50, average where tested more than once. As for the experimental part: Human full-length diacylglycerol:acylCoA acyltransferase 1 (DGAT-1) was expressed in Sf9 insect cells which are then lysed and a crude membrane fraction (105,000×g pellet) was prepared. The DGAT-1 gene is a human DGAT-1 gene described in J Biol Chem 273:26765 (1998) and U.S. Pat. No. 6,100,077.
In vitro inhibition of DGAT-1 was measured using a modification, further described below, of the assay methodology described in U.S. Pat. No. 6,994,956 B2.
The cells were cultured as follows. Sf9 cells (20 L) were infected with 4 mL of DGAT-1 Baculovirus Infected Insect Cells (BIIC) for 72 hours in a Wave Bioreactor System 20/50P (Wave Biotec/GE Healthcare).
Crude DGAT-1 microsomes were prepared as follows. Cell pellets were washed once with ice-cold Dulbecco's phosphate-buffered saline. Cells were collected in tabletop centrifuge (Beckman GS-6KR), 15 minutes, 2000×g, 4° C. Twenty (20) mL of ice-cold Microsome Buffer (MB) was added per 5 g of cell pellet. The suspension was passed through a microfluidizer 3 times (18K psi). The lysate was transferred to centrifuge tubes and centrifuged for 20 minutes at 5000×g (Beckman-Coulter, Inc. Allegra® 64R High-Speed Refrigerated Benchtop Centrifuge, F0650 rotor) at 4° C. The supernatant was transferred to ultracentrifuge tubes and centrifuged at 125,000×g for 1 hour in a Beckman Ti-45 rotor, 4° C. The supernatant fluid was discarded. The pellet was resuspended in 70 mL of MB by sonication. The microsome concentration was determined using Bio-Rad Protein DC Protein Assay. The microsomes were filter sterilized with a 0.22 μm filter. The samples were portioned, flash frozen and stored at −80° C.
The Microsome Buffer, used for microsome preparation, was prepared by conventional means and contained 125 mM sucrose, 3 mM imidazole, 0.2 μg/mL aprotinin, 0.2 μg/mL leupeptin and 5 mM dithiothreitol (Cleland's reagent), DGAT-1 activity was measured in 384-well format in a total assay volume of 25 μl that contained, Hepes buffer (50 mM, pH 7.5), MgCl2 (10 mM), bovine serum albumin (0.6 mg/ml), [^14C]decanoylCoA (20 μM, 58 Ci/mol) and membranes (25 μg/ml) into which 1,2 dioleoyl-sn-glycerol (75 μM) in acetone has already been incorporated. Inhibitors in DMSO were pre-incubated with membranes before initiating the DGAT-1 reaction by the addition of decanoylCoA. […] The DMSO concentration was 2.5%. The inhibitors were present at a range of eight concentrations to generate an apparent IC50 for each compound. The eight inhibitor concentration employed ranged from 10 μM to 3 nM (from high to low concentration). Specifically, the eight concentrations used were 10 μM, 3 μM, 1 μM, 300 nM, 100 nM, 30 nM, 10 nM and 3 nM.
Reaction mixtures were neutralized by the addition of 15 μl of tris(hydroxy-methyl)aminomethane (1M, pH 8.0) and then mixed by trituration with 37.5 μl of Microscint™-E (Perkin Elmer). Plates contents were allowed to partition for 15 to 30 min before ^14C was measured in a scintillation spectrometer (Wallac Microbeta Trilux 1450-030 liquid scintillation counter 12 detector in the top-count DPM mode). Percent inhibition of test compounds was computed as […].
Four separate assays were performed using 4 different methods of analysis. The method of analysis of Assay 1 was the same as Assay 4 (described above) except microsomes were utilized at 25 μg/mL instead of 5 μg/mL. The method of analysis of Assay 2 was the same as Assay 4 (described above) except eleven (11) concentrations of inhibitor were employed instead of eight (8). The method of analysis of Assay 3 was the same as Assay 2 except the compounds were serially diluted in a different laboratory.
Where this DGAT-1 inhibition assay was performed on a compound more than once, an average is provided for that compound.
With `COc1nc(N)c2c(n1)CCN(c1ccc(OC(F)(F)F)cc1)C2=O` [Example 1A, 4-amino-2-methoxy-6-[4-(trifluoromethoxy)phenyl]-7,8-dihydropyrido[4,3-d]pyrimidin-5(6H)-one], the IC50 was 90.4 nM.
For `CCc1ccc(N2CCc3nc(OC)nc(N)c3C2=O)cc1` [Example 1B, 4-amino-6-(4-ethylphenyl)-2-methoxy-7,8-dihydropyrido[4,3-d]pyrimidin-5(6H)-one] the value was 52.7 nM; for `COc1nc(N)c2c(n1)CCN(c1ccc(CC3CC3)cc1)C2=O` [Example 1C, 4-amino-6-[4-(cyclopropylmethyl)phenyl]-2-methoxy-7,8-dihydropyrido[4,3-d]pyrimidin-5(6H)-one], 11 nM.
As for `COc1nc(N)c2c(n1)CCN(c1ccc3c(c1)CCC3)C2=O` [Example 1D, 4-amino-6-(2,3-dihydro-1H-inden-5-yl)-2-methoxy-7,8-dihydropyrido[4,3-d]pyrimidin-5(6H)-one], the figure is 40.4 nM; as for `COc1nc(N)c2c(n1)CCN(c1ccc(C3CC3)cc1)C2=O` [Example 1E, 4-amino-6-(4-cyclopropylphenyl)-2-methoxy-7,8-dihydropyrido[4,3-d]pyrimidin-5(6H)-one], 28.8 nM; as for `COc1nc(N)c2c(n1)CCN(c1ccc(C(C)C)c(F)c1)C2=O` [Example 1G, 4-amino-6-(3-fluoro-4-isopropylphenyl)-2-methoxy-7,8-dihydropyrido[4,3-d]pyrimidin-5(6H)-one], 9.66 nM.
For the molecule `COc1nc(N)c2c(n1)CCN(c1ccc(C3CC(F)(F)C3)cc1)C2=O` [Example 1H, 4-amino-6-[4-(3,3-difluorocyclobutyl)phenyl]-2-methoxy-7,8-dihydropyrido[4,3-d]pyrimidin-5(6H)-one], the half-maximal inhibitory concentration (IC50) is 57.6 nM.
For `COc1nc(N)c2c(n1)CCN(c1ccc([C@H]3C[C@H](O)C3)cc1)C2=O` [Example 1I, 4-amino-6-[4-(trans-3-hydroxycyclobutyl)phenyl]-2-methoxy-7,8-dihydropyrido[4,3-d]pyrimidin-5(6H)-one] the value was 95.8 nM; for `COc1nc(N)c2c(n1)CCN(c1ccc([C@H]3C[C@@H](O)C3)cc1)C2=O` [Example 1J, 4-amino-6-[4-(cis-3-hydroxycyclobutyl)phenyl]-2-methoxy-7,8-dihydropyrido[4,3-d]pyrimidin-5(6H)-one], 59.8 nM; for `COc1nc(N)c2c(n1)CCN(c1ccc(C3(CO)CCC3)cc1)C2=O` [Example 1O, 4-amino-6-{4-[1-(hydroxymethyl)cyclobutyl]phenyl}-2-methoxy-7,8-dihydropyrido[4,3-d]pyrimidin-5(6H)-one], 35.9 nM.
For `COc1nc(N)c2c(n1)CCN(c1ccc(C3(C(=O)O)CCC3)cc1)C2=O` [Example 1P, 1-[4-(4-amino-2-methoxy-5-oxo-7,8-dihydropyrido[4,3-d]pyrimidin-6(5H)-yl)phenyl]cyclobutanecarboxylic acid] the value was 67.1 nM.
Regarding `COc1nc(N)c2c(n1)CCN(c1ccc(C(C)(C)CO)cc1)C2=O` [Example 1T, 4-amino-6-[4-(2-hydroxy-1,1-dimethylethyl)phenyl]-2-methoxy-7,8-dihydropyrido[4,3-d]pyrimidin-5(6H)-one], the IC50 was 52.9 nM.
As for `COc1nc(N)c2c(n1)CCN(c1ccc(C(O)(C(F)(F)F)C(F)(F)F)cc1)C2=O` [Example 1X, 4-amino-2-methoxy-6-{4-[2,2,2-trifluoro-1-hydroxy-1-(trifluoromethyl)ethyl]phenyl}-7,8-dihydropyrido[4,3-d]pyrimidin-5(6H)-one], the figure is 5.19 nM.
Consider `COc1nc(N)c2c(n1)CCN(c1ccc(C(O)C(F)(F)F)cc1)C2=O` (stereo not drawn) [Example 1Y, 4-amino-2-methoxy-6-[4-(2,2,2-trifluoro-1-hydroxyethyl)phenyl]-7,8-dihydropyrido[4,3-d]pyrimidin-5(6H)-one], for which the IC50 was found to be 46 nM.
For `COc1nc(N)c2c(n1)CCN(c1ccc(CC(C)C)cc1)C2=O` [Example 1Z, 4-amino-6-(4-isobutylphenyl)-2-methoxy-7,8-dihydropyrido[4,3-d]pyrimidin-5(6H)-one] the value was 4.92 nM; for `COC(=O)c1ccc(N2CCc3nc(OC)nc(N)c3C2=O)cc1` [Example 2A, Methyl 4-(4-amino-2-methoxy-5-oxo-7,8-dihydropyrido[4,3-d]pyrimidin-6(5H)-yl)benzoate], 50.3 nM.
For `COc1nc(N)c2c(n1)CCN(c1ccc(C(C)(C)O)cc1)C2=O` [Example 2B, 4-amino-6-[4-(1-hydroxy-1-methylethyl)phenyl]-2-methoxy-7,8-dihydropyrido[4,3-d]pyrimidin-5(6H)-one], the IC50 is 177 nM.
As for `COc1nc(N)c2c(n1)CCN(c1ccc(C(C)(C)F)cc1)C2=O` [Example 2C, 4-amino-6-[4-(1-fluoro-1-methylethyl)phenyl]-2-methoxy-7,8-dihydropyrido[4,3-d]pyrimidin-5(6H)-one], the figure is 86.6 nM; as for `COc1nc(N)c2c(n1)CCN(c1ccc(C(C)(C)OC)cc1)C2=O` [Example 2D, 4-amino-2-methoxy-6-[4-(1-methoxy-1-methylethyl)phenyl]-7,8-dihydropyrido[4,3-d]pyrimidin-5(6H)-one], 34.6 nM.
As for `COc1nc(N)c2c(n1)CCN(c1ccc(C(=O)O)cc1)C2=O` [Example 2E, 4-(4-amino-2-methoxy-5-oxo-7,8-dihydropyrido[4,3-d]pyrimidin-6(5H)-yl)benzoic acid], the figure is 1480 nM.
Consider `COc1nc(N)c2c(n1)CCN(c1ccc(C(=O)OC3CCCCC3)cc1)C2=O` [Example 2G, Cyclohexyl 4-(4-amino-2-methoxy-5-oxo-7,8-dihydropyrido[4,3-d]pyrimidin-6(5H)-yl)benzoate], for which the IC50 is 74.4 nM.
Consider `COc1nc(N)c2c(n1)CCN(c1ccc(C(=O)N(C)C)cc1)C2=O` [Example 2H, 4-(4-amino-2-methoxy-5-oxo-7,8-dihydropyrido[4,3-d]pyrimidin-6(5H)-yl)-N,N-dimethylbenzamide], for which the IC50 came out at 1370 nM.
In the case of `COC(=O)C(C)(C)c1ccc(N2CCc3nc(OC)nc(N)c3C2=O)cc1` [Example 3A, methyl 2-[4-(4-amino-2-methoxy-5-oxo-7,8-dihydropyrido[4,3-d]pyrimidin-6(5H)-yl)phenyl]-2-methylpropanoate], the IC50 is 13.7 nM.
As for `COc1nc(N)c2c(n1)CCN(c1ccc(C(C)(C)C(=O)O)cc1)C2=O` [Example 3D, 2-[4-(4-amino-2-methoxy-5-oxo-7,8-dihydropyrido[4,3-d]pyrimidin-6(5H)-yl)phenyl]-2-methylpropanoic acid], the IC50 came to 46.2 nM.
